From US11045457B2, “Piperidinyl-3-(aryloxy)propanamides and propanoates” (priority 2018, dated 2021)

What was measured:
[1] = molecular target: T1, SSTR4 (Homo sapiens (Human), UniProt P31391); test: SSTR4 I-125 somatostatin competition binding assay (membranes from CHO-K1 cells overexpressing SSTR4); details: competition with I-125 labeled somatostatin; for IC50: read-out: SSTR4 Binding pIC50 (converted)
Procedure: Membranes from CHO-K1 cells overexpressing SSTR4 are purchased from Perkin Elmer (catalog number ES-524-M400UA). Test compounds are suspended in DMSO and then diluted in assay buffer (25 mM HEPES pH 7.4, 10 mM MgCl2, 1 mM CaCl2), 0.5% BSA) plus 0.2 nM I-125 labeled somatostatin (Perkin Elmer catalog number NEX389). […] Then 1 μg of SSTR4 membranes in 50 μL assay buffer are added per well. The Plate is incubated for 60 minutes at room temperature. FilterMat A filters (Perkin Elmer catalog number 1450-421) are pre-soaked in 0.5% PEI (Sigma catalog number P3143). The contents of the assay plate are transferred to filters with a TomTech harvester and washed 5 times with 20 mM HEPES, 100 mM NaCl. The filters are dried in a microwave oven then transferred to sample bag containing a scintillator sheet (Perkin Elmer catalog number 1450-441). The scintillator sheets are melted to filters using a heat block. The filters are then read in a MicroBeta scintillation counter. Binding Ki curves are generated using Activity Base for Screening Data Management and the results are reported as pIC50.

[2] = molecular target: SSTR1 (Homo sapiens (Human), UniProt P30872); test: SSTR1 I-125 somatostatin competition binding assay for selectivity versus SSTR4 (membranes from CHO-K1 cells overexpressing SSTR1); details: for SSTR1 Binding pIC50: competition with I-125 labeled somatostatin, CHO-K1 SSTR1 membranes;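 for all read-outs here: Filter-based radioligand binding, bound label counted by scintillation after 60 min incubation at room temperature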
SSTR1, sequence (P30872 whole entry): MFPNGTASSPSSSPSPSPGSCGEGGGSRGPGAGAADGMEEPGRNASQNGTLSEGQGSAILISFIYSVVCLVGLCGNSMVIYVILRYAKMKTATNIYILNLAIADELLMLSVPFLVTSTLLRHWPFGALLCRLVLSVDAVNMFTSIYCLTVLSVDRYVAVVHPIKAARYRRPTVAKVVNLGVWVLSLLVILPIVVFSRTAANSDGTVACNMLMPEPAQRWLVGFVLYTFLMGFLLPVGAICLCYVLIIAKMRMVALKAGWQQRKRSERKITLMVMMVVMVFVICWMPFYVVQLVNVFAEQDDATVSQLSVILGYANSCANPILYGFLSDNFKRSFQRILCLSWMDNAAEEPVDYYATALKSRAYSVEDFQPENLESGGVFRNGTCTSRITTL
Procedure: Membranes from CHO-K1 cells overexpressing SSTR1 are purchased from Perkin Elmer (catalog number ES-520-M400UA). […] Then 10 μg of SSTR1 membranes in 50 μL assay buffer are added per well. The plate is incubated for 60 minutes at room temperature. […] The contents of the assay plate are transferred to filters with a TomTech harvester and washed 5 times with 20 mM HEPES, 100 mM NaCl. […] The scintillator sheets are melted to the filters using a heat block. The filters are then read in a MicroBeta scintillation counter. Binding Ki curves are generated using Activity Base for Screening Data Management and the results are reported as pIC50.

[3] = molecular target: T1, SSTR4; test: Inhibition of forskolin stimulated cAMP in CHO-K1 cells overexpressing SSTR4; format: cell-based; details: for EC50: read-out: SSTR4 Activity pEC50 (converted)
Procedure, shortened: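 Read-out is a HTRF LANCE Ultra cAMP competition using Eu-labelled streptavidin and biotin-cAMP, incubated 60 min at room temperature. It followed a 30 min room-temperature exposure of Kreb's Ringer-washed cells to compound plus forskolin. Potency is expressed as pEC50.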

T1 sequence (P31391 whole entry): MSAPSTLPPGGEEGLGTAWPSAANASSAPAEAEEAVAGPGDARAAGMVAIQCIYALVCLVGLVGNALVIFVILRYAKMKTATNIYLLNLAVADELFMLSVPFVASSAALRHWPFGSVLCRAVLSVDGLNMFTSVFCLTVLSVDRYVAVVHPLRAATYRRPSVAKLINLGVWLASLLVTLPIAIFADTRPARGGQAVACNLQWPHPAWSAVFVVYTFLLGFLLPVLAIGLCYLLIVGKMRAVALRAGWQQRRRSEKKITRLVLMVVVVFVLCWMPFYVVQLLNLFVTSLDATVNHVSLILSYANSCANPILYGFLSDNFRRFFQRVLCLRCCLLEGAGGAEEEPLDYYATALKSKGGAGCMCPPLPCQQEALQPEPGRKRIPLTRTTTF

IC50 [1] [nM]	IC50 [2] [nM]	EC50 [3] [nM]	SMILES	SSTR4 Binding pIC50 [1]	SSTR1 Binding pIC50 [2]	SSTR4 Activity pEC50 [3]
			CN1C[C@H](NC(=O)C(C)(C)COc2ncccc2OC(F)(F)F)C2(CC2)C1 [Example 150, (R)-2,2-dimethyl-N-(5-methyl-5-azaspiro[2.4]heptan-7-yl)-3-((3-(trifluoromethoxy)pyridin-2-yl)oxy)propanamide]	7.3	5.6	8.2
			CCc1ccccc1OCC(C)(C)C(=O)NC1CCN(C)CC1 [Example 72, 3-(2-ethylphenoxy)-2,2-dimethyl-N-(1-methylpiperidin-4-yl)propanamide]	7.1	4.8	8.1
			CCc1ccccc1OCC(C)(C)C(=O)NC1CCN(CC(=O)c2ccc(Cl)cc2)CC1 [Example 104, N-(1-(2-(4-chlorophenyl)-2-oxoethyl)piperidin-4-yl)-3-(2-ethylphenoxy)-2,2-dimethylpropanamide]	8.0	4.8	9.2
			CC(C)(COc1ccccc1Cl)C(=O)NC1CCNCC1 [Example 213, 3-(2-chlorophenoxy)-2,2-dimethyl-N-(piperidin-4-yl)propanamide]	7.6	4.6	8.7
			C[C@@H]1CN(C)C[C@H]1NC(=O)C(C)(C)COc1ncccc1OC(F)(F)F (relative stereo) [Example 180, N-(trans-1,4-dimethylpyrrolidin-3-yl)-2,2-dimethyl-3-((3-(trifluoromethoxy)pyridin-2-yl)oxy)propanamide]	6.5	5.4	7.6
			CN1CCC(NC(=O)C(C)(C)COc2ccccc2C(F)(F)F)CC1 [Example 64, 2,2-dimethyl-N-(1-methylpiperidin-4-yl)-3-(2-(trifluoromethyl)phenoxy)propanamide]	7.0	5.1	7.9
			Cc1c([C@@H]2CN(C)C[C@H]2NC(=O)C(C)(C)COc2ncccc2C2CC2)cnn1C (relative stereo) [Example 27, trans-3-((3-cyclopropylpyridin-2-yl)oxy)-N-(4-(1,5-dimethyl-1H-pyrazol-4-yl)-1-methylpyrrolidin-3-yl)-2,2-dimethylpropanamide]	7.6	6.9	8.9
158	15800	25.1	Cc1ccccc1[C@@H]1CNCC[C@H]1OC(=O)C(C)(C)COc1ncccc1C(F)(F)F (racemic) [Example 168, trans-3-(o-tolyl)piperidin-4-yl 2,2-dimethyl-3-((3-(trifluoromethyl)pyridin-2-yl)oxy)propanoate]			
			Cc1nn(C)cc1[C@@H]1CN(C)C[C@H]1NC(=O)C(C)(C)COc1ncccc1C(F)(F)F (relative stereo) [Example 25, trans-N-(4-(1,3-dimethyl-1H-pyrazol-4-yl)-1-methylpyrrolidin-3-yl)-2,2-dimethyl-3-((3-(trifluoromethyl)pyridin-2-yl)oxy)propanamide]	7.0	6.4	8.3
			CN1CC[C@H](NC(=O)C(C)(C)COc2ncccc2C(F)(F)F)[C@H](c2ccccc2)C1 (relative stereo) [Example 163, 2,2-dimethyl-N-(cis-1-methyl-3-phenylpiperidin-4-yl)-3-((3-(trifluoromethyl)pyridin-2-yl)oxy)propanamide]	6.1	5.2	7.3
			Cc1ccccc1[C@@H]1CNCC[C@H]1N(C)C(=O)C(C)(C)COc1ncccc1C(F)(F)F (relative stereo) [Example 155, N,2,2-trimethyl-N-(trans-3-(o-tolyl)piperidin-4-yl)-3-((3-(trifluoromethyl)pyridin-2-yl)oxy)propanamide]	7.2	5.4	8.0
			CN1CCC(NC(=O)C(C)(C)COc2ncccc2C2CC2)CC1 [Example 47, 3-((3-cyclopropylpyridin-2-yl)oxy)-2,2-dimethyl-N-(1-methylpiperidin-4-yl)propanamide]	7.1	4.8	8.1
			CC(C)(COc1ccccc1Cl)C(=O)N[C@H]1CCNC[C@@H]1F [Example 187, 3-(2-chlorophenoxy)-N-((3S,4S)-3-fluoropiperidin-4-yl)-2,2-dimethylpropanamide]	8.4	4.8	8.8
			CN1CC[C@H](NC(=O)C(C)(C)COc2ncccc2OC(F)(F)F)[C@@H](F)C1 [Example 124, N-((3S,4S)-3-fluoro-1-methylpiperidin-4-yl)-2,2-dimethyl-3-((3-(trifluoromethoxy)pyridin-2-yl)oxy)propanamide]	7.4	5.1	7.6
			CN1CCC(NC(=O)C(C)(C)COc2ncccc2OC(F)(F)F)C2(CC2)C1 (stereo not drawn) [Example 119, 2,2-dimethyl-N-(5-methyl-5-azaspiro[2.5]octan-8-yl)-3-((3-(trifluoromethoxy)pyridin-2-yl)oxy)propanamide]	7.3	5.0	9.0
794	12600	31.6	Cc1cccnc1OCC(C)(C)C(=O)N[C@@H]1CN(C)C[C@H]1C (racemic) [Example 182, N-(trans-1,4-dimethylpyrrolidin-3-yl)-2,2-dimethyl-3-((3-methylpyridin-2-yl)oxy)propanamide]			
			CN1CCC(NC(=O)C(C)(C)COc2ccccc2OC(F)(F)F)CC1 [Example 102, 2,2-dimethyl-N-(1-methylpiperidin-4-yl)-3-(2-(trifluoromethoxy)phenoxy)propanamide]	7.8	5.6	8.7
126	39800	31.6	C[C@@H]1CN(C)CC[C@H]1NC(=O)C(F)(F)COc1ncccc1OC(F)(F)F (racemic) [Example 200, N-(trans-1,3-dimethylpiperidin-4-yl)-2,2-difluoro-3-((3-(trifluoromethoxy)pyridin-2-yl)oxy)propanamide]			
			C[C@@H]1CN(C)CC[C@H]1NC(=O)C(C)(C)COc1ccccc1Cl (relative stereo) [Example 186, trans-3-(2-chlorophenoxy)-N-(1,3-dimethylpiperidin-4-yl)-2,2-dimethylpropanamide]	7.4	5.5	8.1
			C[C@@H]1C[C@H](NC(=O)C(F)(F)COc2ncccc2OC(F)(F)F)CCN1 [Example 212, 2,2-difluoro-N-((2R,4R)-2-methylpiperidin-4-yl)-3-((3-(trifluoromethoxy)pyridin-2-yl)oxy)propanamide]	7.4	4.5	8.6
			CN1CC[C@@H](NC(=O)C(C)(C)COc2ccccc2Br)C1 [Example 69, (R)-3-(2-bromophenoxy)-2,2-dimethyl-N-(1-methylpyrrolidin-3-yl)propanamide]	7.2	5.2	8.4
			Cc1ccccc1[C@@H]1CN(C)CC[C@H]1NC(=O)C(C)(C)COc1ncccc1C(F)(F)F (relative stereo) [Example 161, 2,2-dimethyl-N-(trans-1-methyl-3-(o-tolyl)piperidin-4-yl)-3-((3-(trifluoromethyl)pyridin-2-yl)oxy)propanamide]	7.7	6.5	9.1
			CN1CC[C@H](NC(=O)C(C)(C)COc2ncccc2C(F)(F)F)[C@@H](F)C1 [Example 117, N-((3S,4S)-3-fluoro-1-methylpiperidin-4-yl)-2,2-dimethyl-3-((3-(trifluoromethyl)pyridin-2-yl)oxy)propanamide]	6.7	4.5	7.6
			CN1CCC(NC(=O)C(C)(C)COc2ncccc2OC(F)(F)F)CC1 [Example 92, 2,2-dimethyl-N-(1-methylpiperidin-4-yl)-3-((3-(trifluoromethoxy)pyridin-2-yl)oxy)propanamide]	6.8	4.8	7.7
			Cc1ccccc1[C@@H]1CNCC[C@H]1NC(=O)C(C)(C)COc1ncccc1C(F)(F)F (relative stereo) [Example 157, 2,2-dimethyl-N-(trans-3-(o-tolyl)piperidin-4-yl)-3-((3-(trifluoromethyl)pyridin-2-yl)oxy)propanamide]	8.8	7.0	9.9
200	251	15.8	Cc1ccc([C@@H]2CN(C)C[C@H]2NC(=O)C(C)(C)COc2ncccc2C(F)(F)F)cn1 (racemic) [Example 62, trans-2,2-dimethyl-N-(1-methyl-4-(6-methylpyridin-3-yl)pyrrolidin-3-yl)-3-((3-(trifluoromethyl)pyridin-2-yl)oxy)propanamide]			
63.1	3160	15.8	CC[C@@H]1CN(C)CC[C@H]1NC(=O)C(C)(C)COc1ncc(C)cc1C (racemic) [Example 128, trans-3-((3,5-dimethylpyridin-2-yl)oxy)-N-(3-ethyl-1-methylpiperidin-4-yl)-2,2-dimethylpropanamide]			
			CN1CC[C@@H](NC(=O)C(C)(C)COc2ccccc2C2CC2)C1 [Example 71, (R)-3-(2-cyclopropylphenoxy)-2,2,-dimethyl-N-(1-methylpyrrolidin-3-yl)propanamide]	7.3	5.3	8.3
